Reference: ChEMBL document CHEMBL5252590, “Structure-based design of novel melanin-concentrating hormone receptor-1 ligands based on saturated nitrogen-containing heterocycles” (Bioorg Med Chem Lett, 2023)

Test: Displacement of [125I]MCH from MCHR1 expressed in CHO cell membranes assessed as inhibition constant
Design: species or system Cricetulus griseus, Membrane
Details: not given; call rule not given here

SMILES	Ki
O=C(c1ccc(-c2ccccc2)cc1)N1CCCC12CCCN(Cc1ccc3ccccc3c1)C2 (configuration not stated)	Not Active

Same assay, conditions: read-out: Ki

SMILES	Ki [nM]
COc1cc(OC)cc(C(=O)N[C@@H]2CCN(Cc3ccc4c(c3)OCO4)C2)c1	61.8
O=C(COc1ccc(Cl)cc1)N1CCCC12CCCN(Cc1ccc3ccccc3c1)C2 (configuration not stated)	2610
O=C(c1ccc(F)c(Cl)c1)N1CCC2(CCCN(Cc3ccc4c(c3)OCO4)C2)C1 (configuration not stated)	2500
O=C(N[C@@H]1CCN(Cc2ccc3ccccc3c2)C1)c1ccc(-c2ccc(C(F)(F)F)cc2)s1	3080
O=C(c1ccc(F)c(F)c1)N1CCC2(CCCN(Cc3ccc4ccccc4c3)C2)C1 (configuration not stated)	1900
O=C(N[C@@H]1CCN(Cc2ccc3ccccc3c2)C1)c1ccc(-c2ccc(F)cc2)cc1	1840
O=C(N[C@@H]1CCN(Cc2ccc3ccccc3c2)C1)c1ccc(F)c(Cl)c1	136
O=C(N[C@@H]1CCN(Cc2ccc3ccccc3c2)C1)c1ccc(Br)cc1	103
COc1cc(OC)cc(C(=O)N[C@@H]2CCN(C/C=C/c3ccccc3)C2)c1	17
COc1cccc(-c2ccc(C(=O)N[C@@H]3CCN(Cc4ccc5ccccc5c4)C3)cc2)c1	4190
O=C(/C=C/c1ccc(F)cc1)N[C@@H]1CCN(Cc2ccc3ccccc3c2)C1	936
O=C(COc1ccc(Cl)cc1)N1CCC2(CCCN(Cc3ccc4c(c3)OCO4)C2)C1 (configuration not stated)	2560
O=C(N[C@@H]1CCN(Cc2ccc3ccccc3c2)C1)c1ccc(F)c(F)c1	208
O=C(COc1ccc(Cl)cc1)N[C@@H]1CCN(Cc2ccc3ccccc3c2)C1	271
COc1cc(OC)cc(C(=O)NC[C@H]2CCN(Cc3ccc4ccccc4c3)C2)c1	105
O=C(N[C@@H]1CCN(Cc2ccc3ccccc3c2)C1)c1ccccc1	448
O=C(N[C@@H]1CCN(Cc2ccc3ccccc3c2)C1)c1ccc(Br)s1	202
COc1cc(NC(=O)CC2CCCN(Cc3ccc4ccccc4c3)C2)cc(OC)c1 (configuration not stated)	1690
COc1cc(OC)cc(C(=O)N2CCC3(CCCN(Cc4ccc5ccccc5c4)C3)C2)c1 (configuration not stated)	330
Cc1ccc2c(C)c(C(=O)N[C@@H]3CCN(Cc4ccc5ccccc5c4)C3)oc2c1	2640
COc1cc(OC)cc(C(=O)N[C@@H]2CCN(Cc3ccc4ccccc4c3)C2)c1	7
